Calls of active or inactive are those of the source.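 Rule for the calls: active = at least one rat sex group has a carcinogenic potency value and tumor site recorded; inconclusive = only rat studies were judged inadequate by the national testing program; inactive = no potency or tumor site, with negative rat experiments.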
System: rat chronic carcinogenicity bioassay, TD50
Experiment: DSSTox (CPDBAS) Carcinogenic Potency Database Summary Rat Bioassay Results
Conditions: for Potency: stronger effect = lower value
Summary of the method: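 The activity score maps log10(1/TD50_Rat_mmol) linearly onto 1–100; actives without a computed TD50, such as mixtures, receive 50. Source data are chronic rat carcinogenicity tests, using the most positive experiment for each sex.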

[1] = TD50_Rat_Note: no positive results, TargetSites_Rat_Female: no positive results
[2] = TD50_Rat_Note: no positive results
[3] = TargetSites_Rat_Female: no positive results
[4] = TD50_Rat_Note: TD50 is harmonic mean of more than one positive test, TargetSites_Rat_Female: liver

With COc1ccccc1[N+](=O)[O-] the Potency (TD50_Rat_Note: TD50 is harmonic mean of more than one positive test, greater than ten-fold variation among TD50 values for positive res, TargetSites_Rat_Female: hematopoietic system, kidney, large intestine, urinary bladder) was 15.6 mg/kg/day.

CCN(Cc1cccc(S(=O)(=O)O)c1)c1ccc(C(=C2C=CC(=[N+](CC)Cc3cccc(S(=O)(=O)[O-])c3)C=C2)c2ccccc2)cc1 showed a Potency (TD50_Rat_Note: TD50 is harmonic mean of more than one positive test, TargetSites_Rat_Female: liver, TargetSites_Rat_BothSexes: hematopoietic system) of 6060 mg/kg/day.

O=P1(N(CCCl)CCCl)NCCCO1 (configuration not stated) gave a Potency (TD50_Rat_Note: TD50 is harmonic mean of more than one positive test, greater than ten-fold variation among TD50 values for positive res, TargetSites_Rat_Female: all tumor bearing animals, TargetSites_Rat_BothSexes: hematopoietic system, nervous system, urinary bladder) of 2.21 mg/kg/day.

In the case of Cc1cccc2cccnc12, the outcome [1] is reported as “inactive; no positive results”.

For COC(=O)C1=C(C)NC(C)=C(C(=O)OCCN2CCN(C(c3ccccc3)c3ccccc3)CC2)C1c1cccc([N+](=O)[O-])c1 (configuration not stated), the outcome [1] was “inactive; no positive results”.

With CC[C@H]1CN2CCc3cc(OC)c(OC)cc3[C@@H]2C[C@@H]1C[C@H]1NCCc2cc(OC)c(OC)cc21 the outcome (TD50_Rat_Note: only experiment is NCI/NTP bioassay inadequate, TargetSites_Rat_Female: NTP bioassay inadequate) was “ntp bioassay inadequate”.

Molecule O=C1C2(Cl)C3(Cl)C4(Cl)C(Cl)(Cl)C5(Cl)C3(Cl)C1(Cl)C5(Cl)C24Cl (configuration not stated) has a Potency (TargetSites_Rat_Female: liver) of 2.96 mg/kg/day.

COc1ccc(N)c(OC)c1 was tested, and the outcome [1] was “inactive; no positive results”.

Cc1cc(Cl)ccc1N was tested, and the outcome [1] was “inactive; no positive results”.

For O.O.O.O.O.O.O.O.O=S(=O)([O-])[O-].O=S(=O)([O-])[O-].O=S(=O)([O-])[O-].[Cd+2].[Cd+2].[Cd+2], the outcome [2] was “inactive; no positive results”.

CCN(C)N=O gave a Potency [3] of 0.0503 mg/kg/day.

In the case of O=C(O)c1nn(Cc2ccc(Cl)cc2Cl)c2ccccc12, the outcome [1] is reported as “inactive; no positive results”.

In the case of ClC=C(Cl)Cl, the Potency (TD50_Rat_Note: TD50 is harmonic mean of more than one positive test, TargetSites_Rat_Female: no positive results) is reported as 668 mg/kg/day and the outcome [1] is reported as “inactive; no positive results”.

CCCCCc1cc(O)c2c(c1)OC(C)(C)[C@@H]1CCC(C)=C[C@@H]21 was tested, and the outcome [1] was “inactive; no positive results”.

CC(=O)Nc1ccc(-c2ccc(F)cc2)cc1 showed a Potency of 1.01 mg/kg/day.

With CCCCCCCCCCCCC(=O)COC1=C(O)C(=O)O[C@@H]1[C@@H](O)CO the outcome [1] was “inactive”.

In the case of CCCN(CCC)c1c([N+](=O)[O-])cc(C(F)(F)F)cc1[N+](=O)[O-], the outcome [1] is reported as “inactive; no positive results”.

Work on Cc1ccccc1[N+](=O)[O-] yielded a Potency (TD50_Rat_Note: TD50 is harmonic mean of more than one positive test, greater than ten-fold variation among TD50 values for positive res, TargetSites_Rat_Female: liver, mammary gland, subcutaneous tissue) of 4.66 mg/kg/day.

Work on CC(=O)Nc1nc(-c2ccc([N+](=O)[O-])o2)cs1 yielded a Potency (TD50_Rat_Note: TD50 is harmonic mean of more than one positive test, TargetSites_Rat_Female: mammary gland) of 17.8 mg/kg/day.

In the case of COP(=S)(OC)Oc1ccc(SC)c(C)c1, the outcome [1] is reported as “inactive; no positive results”.

With COC1[C@@H](O[C@@H]2O[C@H](C)[C@@H](O[C@H]3C[C@@](C)(O)[C@H](OC(=O)CC(C)C)[C@H](C)O3)[C@H](N(C)C)[C@H]2O)[C@@H](CC=O)C[C@@H](C)[C@@H](O)/C=C/C=C/C[C@@H](C)OC(=O)C[C@H]1OC(C)=O (some centres not stated) the outcome [1] was “inactive; no positive results”.

In the case of CC1CO1 (configuration not stated), the Potency (TD50_Rat_Note: TD50 is harmonic mean of more than one positive test, greater than ten-fold variation among TD50 values for positive res, TargetSites_Rat_Female: mammary gland, nasal cavity, stomach) is reported as 74.4 mg/kg/day.

For CCOC(=O)[C@H](CCc1ccccc1)N[C@@H](C)C(=O)N1Cc2ccccc2C[C@H]1C(=O)O, the outcome [1] was “inactive; no positive results”.

c1ccc2[nH]c(-c3cscn3)nc2c1 was tested, and the outcome [1] was “inactive; no positive results”.

Work on Nc1ccc(N=Nc2ccccc2)c(N)n1 yielded a Potency (TD50_Rat_Note: TD50 is harmonic mean of more than one positive test, TargetSites_Rat_Female: large intestine) of 303 mg/kg/day.

Work on CC(O)c1ccccc1 (configuration not stated) yielded a Potency [3] of 458 mg/kg/day.

C[C@@H]1CCCCN1N=O showed a Potency (TargetSites_Rat_BothSexes: nervous system) of 20.4 mg/kg/day.

CN(C)CCOc1ccc(/C(=C(/CCCl)c2ccccc2)c2ccccc2)cc1 was tested, and the outcome [1] was “inactive; no positive results”.

O=C1NC(c2ccc([N+](=O)[O-])s2)Nc2ccccc21 (configuration not stated) was tested, and the Potency (TargetSites_Rat_Female: all tumor bearing animals) was 1.53 mg/kg/day.

In the case of O.[Cd+2].[Cl-].[Cl-], the outcome [1] is reported as “inactive; no positive results”.

For Nc1nnc(-c2ccc([N+](=O)[O-])o2)s1, the Potency (TargetSites_Rat_Female: kidney, lung, mammary gland, stomach) was 0.662 mg/kg/day.

Molecule ClC1(Cl)C2(Cl)C3C4(Cl)C1(Cl)C1(Cl)C4(Cl)C(Cl)(Cl)C3(Cl)C21Cl (configuration not stated) has a Potency of 1.46 mg/kg/day.

CC1=C(C)C(=O)C(C(CCCCCC(=O)O)c2ccccc2)=C(C)C1=O (configuration not stated) was tested, and the outcome [1] was “inactive; no positive results”.

For Cc1cccc(Nc2cc(Cl)nc(SCC(=O)NCCO)n2)c1C, the Potency was 6.49 mg/kg/day.

In the case of CCOC1=C(O)C(=O)O[C@@H]1[C@@H](O)CO, the outcome [1] is reported as “inactive”.

In the case of NC(=O)OCC(COC(N)=O)c1ccccc1, the Potency [4] is reported as 1090 mg/kg/day.

C=C(Cl)Cl was tested, and the outcome [1] was “inactive; no positive results”.

For Cc1ccc2c(c1)C(N1CCN(C)CC1)=Nc1ccccc1S2, the outcome [1] was “inactive; no positive results”.

CCOC(=O)C(C)(C)Oc1ccc(Cl)cc1 gave a Potency of 169 mg/kg/day.

Molecule Cc1ccccc1S(N)(=O)=O has a Potency (TargetSites_Rat_BothSexes: urinary bladder) of 3960 mg/kg/day.

In the case of CS(=O)(=O)OCCCCOS(C)(=O)=O, the outcome [2] is reported as “inactive; no positive results”.

CC1=CC(=O)CC(C)(C)C1 showed a Potency [3] of 1210 mg/kg/day.

For CC(C)C=O, the outcome [1] was “inactive; no positive results”.

Work on NCC1(CC(=O)O)CCCCC1 yielded a Potency [3] of 5850 mg/kg/day.

In the case of O=C1Nc2ccc(Cl)cc2C(c2ccccc2)=NC1O (configuration not stated), the outcome [1] is reported as “inactive; no positive results”.

With CCOC(N)=O the Potency (TargetSites_Rat_BothSexes: all tumor bearing animals) was 41.3 mg/kg/day.

For Nc1ccc(Nc2ccccc2)cc1, the outcome [1] was “inactive; no positive results”.

O=C(O)c1cc(O)c(O)c(O)c1 was tested, and the outcome [2] was “inactive; no positive results”.

For CC(C)O, the outcome [1] was “inactive; no positive results”.

Work on CN(C)C(=O)Nc1ccc(Cl)cc1 yielded a Potency [3] of 131 mg/kg/day.

In the case of CCCCN(N=O)C(=N)N[N+](=O)[O-], the outcome [2] is reported as “inactive; no positive results”.

CCCCCCCCCCCCCCN(C)N=O was tested, and the Potency (TD50_Rat_Note: harmonic mean of TD50 includes a value for upper 99% confidence limit from study with 100% tumor incidence but no lifeta) was 1.65 mg/kg/day.

Molecule C=CC=C has a Potency (TD50_Rat_Note: TD50 is harmonic mean of more than one positive test, greater than ten-fold variation among TD50 values for positive res, TargetSites_Rat_Female: mammary gland) of 261 mg/kg/day.

Cc1ccc2c(c1[N+](=O)[O-])C(=O)c1ccccc1C2=O showed a Potency [4] of 84.8 mg/kg/day.

With CC(C)(C)c1cc(CO)cc(C(C)(C)C)c1O the outcome [1] was “inactive; no positive results”.

O=C1CN(/N=C/c2ccc([N+](=O)[O-])o2)C(=O)N1 was tested, and the Potency [3] was 163 mg/kg/day.

With CN(CC(O)CO)N=O (configuration not stated) the Potency (TargetSites_Rat_Female: esophagus, liver, lung, nasal cavity) was 0.646 mg/kg/day.

CC1CN(N=O)C(=O)NC1=O (configuration not stated) was tested, and the outcome [1] was “inactive; no positive results”.

Molecule O=S(=O)(O)c1ccc2c(N=Nc3ccc(S(=O)(=O)O)c4ccccc34)c(O)c(S(=O)(=O)O)cc2c1 has a Potency (TD50_Rat_Note: TD50 is harmonic mean of more than one positive test, TargetSites_Rat_BothSexes: hematopoietic system) of 1470 mg/kg/day.

Work on CC(C)=CCl yielded a Potency (TD50_Rat_Note: TD50 is harmonic mean of more than one positive test, TargetSites_Rat_Female: esophagus, nasal cavity, oral cavity, stomach) of 31.8 mg/kg/day.

For CCN=c1cc2oc3cc(NCC)c(C)cc3c(-c3ccccc3C(=O)OCC)c-2cc1C, the outcome [1] was “inactive; no positive results”.

O=S1(=O)CCCO1 showed a Potency (TD50_Rat_Note: TD50 is harmonic mean of more than one positive test, TargetSites_Rat_Female: hematopoietic system, mammary gland, nervous system, small intestine) of 3.84 mg/kg/day.

For CCCc1cc(=O)[nH]c(=S)[nH]1, the Potency (TD50_Rat_Note: TD50 is harmonic mean of more than one positive test, TargetSites_Rat_Female: thyroid gland) was 13.7 mg/kg/day.

In the case of NN, the Potency (TD50_Rat_Note: TD50 is harmonic mean of more than one positive test, greater than ten-fold variation among TD50 values for positive res, TargetSites_Rat_Female: liver, lung, nasal cavity) is reported as 0.613 mg/kg/day.

In the case of CCOC(=O)N(CC)N=O, the Potency (TD50_Rat_Note: TD50 is harmonic mean of more than one positive test, TargetSites_Rat_Female: esophagus, oral cavity, small intestine, stomach) is reported as 0.0904 mg/kg/day.

With CNCCc1ccc(OC(=O)C(C)C)c(OC(=O)C(C)C)c1 the outcome [1] was “inactive; no positive results”.

In the case of S=C=NCCCCCCc1ccccc1, the outcome [2] is reported as “inactive; no positive results”.

For O=C(NCC1CCCCN1)c1cc(OCC(F)(F)F)ccc1OCC(F)(F)F (configuration not stated), the outcome [1] was “inactive; no positive results”.

NNC(N)=S was tested, and the outcome [1] was “inactive”.

COc1ccc(N)c(C)c1 showed a Potency (TD50_Rat_Note: TD50 is harmonic mean of more than one positive test, TargetSites_Rat_Female: urinary bladder) of 470 mg/kg/day.

Molecule Clc1cccc(-c2cccc(Cl)c2)c1 has a Potency (TD50_Rat_Note: no positive results are statistically significant, TD50_Rat_mmol was not calculated for this mixture, but Activiity Scor) of 157 mg/kg/day.

Molecule O=NN1CCCN(N=O)C1 has a Potency (TD50_Rat_Note: positive test results only by intraperitoneal or intravenous injection) of 0.166 mg/kg/day.

With Nc1cc(S(=O)(=O)[O-])cc2cc(S(=O)(=O)[O-])c(N=Nc3ccc(-c4ccc(N=Nc5c(S(=O)(=O)[O-])cc6cc(S(=O)(=O)[O-])cc(N)c6c5O)c(O)c4)cc3O)c(O)c12.[Cu].[Cu].[Na+].[Na+].[Na+].[Na+] the Potency [3] was 1570 mg/kg/day.

CCOc1ccc(NC(N)=O)cc1 was tested, and the Potency (TargetSites_Rat_BothSexes: liver) was 537 mg/kg/day.

For CCN(C#N)N=O, the Potency (TD50_Rat_Note: TD50 is harmonic mean of more than one positive test, TargetSites_Rat_Female: nasal cavity) was 3.68 mg/kg/day.

For O=C(Nc1cccc2c(=O)cc(-c3nn[nH]n3)oc12)c1ccc(OCCCCc2ccccc2)cc1, the outcome [1] was “inactive; no positive results”.

For O=P(=O)O, the outcome [1] was “inactive; no positive results”.

O=CNNc1nc(-c2ccc([N+](=O)[O-])o2)cs1 was tested, and the Potency (TD50_Rat_Note: TD50 is harmonic mean of more than one positive test, TargetSites_Rat_Female: ear Zymbals gland, hematopoietic system, kidney, large intestine, liver, mammary gland, small intestine) was 5.06 mg/kg/day.

Molecule Nc1ccc(O)c([N+](=O)[O-])c1 has a Potency [3] of 309 mg/kg/day.

For CC(C)Cc1ccc(C(C)C(=O)O)cc1 (configuration not stated), the outcome [2] was “inactive; no positive results”.

Work on O=NN(CCO)C(=O)NCCCl yielded a Potency (TD50_Rat_Note: TD50 is harmonic mean of more than one positive test, TargetSites_Rat_Female: kidney, liver) of 0.356 mg/kg/day.
